Results reported in patent publication US20260109674A1, “ALLOSTERIC MODULATION OF MUSCARINIC ACETYLCHOLINE RECEPTOR EFFICACY” (The University of Toledo, priority 2022, published 2026).
Marks after values point to notes of the source that are not given here.

Assays:
[1] = target: T1, M1 muscarinic receptors expressed in CHO cells (Homo sapiens, UniProt P11229); test: [3H]-arachidonic acid release screen with and without ACh and modulator; assay type: cell-based; details: for Modulation of ACh activity (in words): [3H]AA release
T1 construct: expressed in transfected cells; host or cells: CHO (CHO-hM1, stably transfected)
T1 sequence (P11229 1-460): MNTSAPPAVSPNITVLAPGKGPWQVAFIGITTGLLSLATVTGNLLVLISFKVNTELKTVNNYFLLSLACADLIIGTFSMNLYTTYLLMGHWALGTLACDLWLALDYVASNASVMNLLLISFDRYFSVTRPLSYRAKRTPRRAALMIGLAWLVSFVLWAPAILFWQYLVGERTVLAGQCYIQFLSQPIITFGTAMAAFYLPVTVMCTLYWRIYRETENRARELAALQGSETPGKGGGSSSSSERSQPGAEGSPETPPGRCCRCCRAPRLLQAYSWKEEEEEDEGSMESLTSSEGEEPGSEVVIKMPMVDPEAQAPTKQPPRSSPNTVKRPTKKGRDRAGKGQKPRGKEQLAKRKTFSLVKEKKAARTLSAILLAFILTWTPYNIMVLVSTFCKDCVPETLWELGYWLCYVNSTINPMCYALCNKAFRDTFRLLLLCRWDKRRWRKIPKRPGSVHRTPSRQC
Procedure: CHO cells expressing human M1 muscarinic receptors were cultured at 37° C. in a 5% CO2 atmosphere in F12 medium supplemented with 5% fetal bovine serum, 100 units/mL penicillin, and 100 μg/mL streptomycin.
Measurement of [^3H]AA release was performed. Stably transfected CHO-hM1 or CHO-hM3 cells were seeded on 24-well plates (Greiner Bio-One GmbH, Frickenhausen, Germany) at a density of 5.0×10^4 cells/well in 0.5 ml of F-12 medium. Cells were incubated until they attached (approximately 3 h), followed by the addition of [^3H]AA to a final concentration of 0.05 μCi of [^3H]AA per well. The cells were then grown for 16 to 20 h before the assay was performed. [^3H]AA release was measured in Eagle's basal medium with 20 mM HEPES and 2 mg/ml fatty acid-free bovine serum albumin (EM-BSA). Cells were rinsed twice with EM-BSA, followed by the addition of EM-BSA media containing experimental agents and incubated for 1 h at 37° C. The assay was terminated by aspiration of the media, and the amount of [^3H]AA released was determined by liquid scintillation counting (Beckman-Coulter LS6500).
For some assays, pretreatment with phenoxybenzamine (POB) was employed, as indicated, to reduce the number of available receptors per cell. Stock POB was made up at 10 mM in ethanol and stored at −20° C. Each well was pretreated with 0.5 ml of the appropriate concentration in PBS with 1 mM CaCl2 and 1 mM MgCl2 (PBS++) for 30 min at 37° C., followed by 5 washes with PBS++. After pretreatment, the normal protocol was followed as above.
Tabulated [^3H]AA release data are represented as a fraction of maximal release in the presence of 100 μM ACh or as the fraction of release elicited by the appropriate concentration of ACh alone, as indicated dose-response curves were normalized to the maximal response of ACh without allosteric ligand. Some response curves were analyzed using the empirical four-parameter equation: […]
Disintegration per minute (DPM) values for a single compound were obtained in triplicate, and each compound was evaluated on three separate 24-well plates. The mean values for each condition from each of the three 24-well plates were used for the statistical analysis. The baseline mean was subtracted from each value, then normalized to the mean response produced by 100 μM ACh (set at 1.0). Statistical analyses were completed on the normalized values via one-way repeated measures ANOVA with Tukey's post hoc test. Statistically significant differences are noted as follows: *, p<0.05; **, p<0.01; ***, p<0.001.

[2] = tested on: wild-type zebrafish larvae; test: Maximum tolerated concentration (MTC) determination in zebrafish larvae; assay type: in vivo, Danio rerio; details: after 24-hour exposure; Table 3
Procedure: Determination of maximum tolerated concentration was completed by placing 5 days post fertilization (dpf) wild-type zebrafish larvae in a 24 well plate at 6 fish per well, and one compound concentration per well. […] Death was determined by the absence of heartbeat. Additional endpoints were used to assess toxicity at non-lethal concentrations such as startle capacity (poke stimulus), abnormalities in swimming behavior (loss of dorsoventral balance), and gross morphological deformities (bent body). […] The MTC determination was used to select three doses of each compound (low, medium, high dose) to be used in behavioral assays.

[3] = tested on: wild-type zebrafish larvae; test: General locomotor assay in zebrafish larvae (locomotor activity, repetitive behaviors); assay type: in vivo, Danio rerio; details: Table 3; test concentration not given; N = 12
Procedure: Five days post fertilization (dpf) zebrafish larvae were exposed to a range of nonlethal concentrations of the compounds in a 24-well plate with appropriate controls. The movement of each larval zebrafish was monitored with the Noldus behavior recording system (Noldus Information Technology, Leesburg VA) and quantified using EthoVision® XT 15 software (Noldus Information Technology, Leesburg VA). The plate was immediately placed in the incubator for a 30-minute exposure period. After 30 minutes, the plate was transferred to the Noldus system and swimming behavior was recorded in 100% light for 30 minutes to measure spontaneous swimming behavior. The light was switched off for 10 minutes (dark period) and then switched on for 10 minutes (light period), which was then repeated for two additional cycles. In total, the larvae were exposed to three cycles of alternating 10-minute dark and light periods (100% darkness-to-100% light). […]
All data for exposure and the behavioral end points were analyzed by one-way ANOVA (factor: drug conc) followed by a Dunnett's multiple comparisons test for post hoc significance between drug concentration and control group. Statistically significant differences are noted as follows: *, p<0.05; **, p<0.01; ***, p<0.001.

[4] = 10 μM modulator, Table 4, N = 4-5

SMILES	Ratio of response of ACh with modulator to response of ACh alone, 0.1 μM ACh ([1]; 10 μM modulator, Table 1)	Ratio of response of ACh with modulator to response of ACh alone, 100 μM ACh ([1]; 10 μM modulator, Table 1)	Stimulation of [3H]AA release, No ACh (fraction of stimulation above the control) ([1]; 10 μM modulator, Table 1)	Maximum Tolerated Concentration [2]	other results
O=C1C(=O)N(Cc2ccc(Br)cc2)c2ccccc21 [VU0119498, reference compound]	1.22 ± 0.34	1.04 ± 0.07	0.07 ± 0.00	–	–
COc1cc(CN2C(=O)C(=O)c3ccccc32)cc(OC)c1OC [Compound 8k, 1-(3,4,5-trimethoxybenzyl)indoline-2,3-dione]	1.37 ± 0.08	0.83 ± 0.01	0.03 ± 0.00	30 µM	–
CCCCc1oc2ccccc2c1C(=O)c1cc(I)c(OCCN(CC)C(C)=O)c(I)c1 [Compound 5a, N-(2-(4-(2-butylbenzofuran-3-carbonyl)-2,6-diiodophenoxy)ethyl)-N-ethylacetamide]	2.22 ± 0.26	1.58 ± 0.03	0.17 ± 0.04	10 µM	Increase of mAChR activity compared to treatment with ACh alone ([1]; 10 μM modulator): 70%; Intrinsic agonist activity (in words) ([1]; modulator 10 μM, without ACh): significant intrinsic agonist activity
CCCCc1oc2ccccc2c1C(=O)c1ccc(OCCN(CC)CC)cc1 [Compound 6c, (2-butylbenzofuran-3-yl)(4-(2-(diethylamino)ethoxy)phenyl)methanone]	0.46 ± 0.17	1.05 ± 0.05	0.05 ± 0.04	3 µM	Modulation of ACh activity (in words) ([1]; modulator 10 μM): decreased ACh activity
O=C1C(=O)N(Cc2ccc(O)cc2)c2ccccc21 [Compound 10, 1-(4-hydroxybenzyl)indoline-2,3-dione]	1.60 ± 0.10	0.92 ± 0.06	0.01 ± 0.01	10 µM	–
CCCCc1oc2ccccc2c1C(=O)c1cc(I)c(OC)c(I)c1 [Compound 6b, (2-butylbenzofuran-3-yl)(3,5-diiodo-4-methoxyphenyl)methanone]	1.6 ± 0.07	1.32 ± 0.08	0.06 ± 0.01	30 µM	Modulation of ACh activity (in words) ([1]; modulator 10 μM): increased ACh activity
COc1c(Cl)cc(CN2C(=O)C(=O)c3ccccc32)cc1Cl [Compound 8e, 1-(3,5-dichloro-4-methoxybenzyl)indoline-2,3-dione]	2.13 ± 0.11	1.28 ± 0.07	0.08 ± 0.01	100 µM	–
COc1ccc(CN2C(=O)C(=O)c3ccccc32)cc1I [Compound 8b, 1-(3-iodo-4-methoxybenzyl)indoline-2,3-dione]	1.81 ± 0.04	1.24 ± 0.01	0.08 ± 0.01	10 µM	–
O=C1C(=O)N(Cc2cc(F)c(F)c(F)c2)c2ccccc21 [Compound 8i, 1-(3,4,5-trifluorobenzyl)indoline-2,3-dione]	1.39 ± 0.06	1.05 ± 0.02	0.07 ± 0.01	10 µM	–
CCCCc1oc2ccccc2c1C(=O)c1cc(I)c(OCCNCC)c(I)c1.Cl [Compound 1, (2-butylbenzofuran-3-yl)(4-(2-(ethylamino)ethoxy)-3,5-diiodophenyl)methanone hydrochloride]	0.75 ± 0.08	0.67 ± 0.02	0.22 ± 0.01	3 µM	Modulation of ACh activity (in words) ([1]; modulator 10 μM): weaker efficacy PAM relative to amiodarone
CCCCc1oc2ccccc2c1C(=O)c1cc(I)c(OCCN(CC)CC)c(I)c1 [Amiodarone, reference compound]	–	–	–	10 µM	–
COc1c(I)cc(Cn2cc(C(=O)O)c(=O)c3ccccc32)cc1I [GK-1-47]	–	–	–	–	Ratio of response of ACh with modulator to response of ACh alone, 0.1 μM ACh [1, 4]: 2.46 ± 0.13; Ratio of response of ACh with modulator to response of ACh alone, 100 μM ACh [1, 4]: 1.33 ± 0.04; Stimulation of [3H]AA release, No ACh (fraction of stimulation above the control) [1, 4]: 0.24 ± 0.01
COc1ccc(Cn2cc(C(=O)O)c(=O)c3ccccc32)cc1 [BQCA, reference compound]	2.34 ± 0.23	0.86 ± 0.03	0.37 ± 0.04	–	Ratio of response of ACh with modulator to response of ACh alone, 0.1 μM ACh ([1]; 3 μM modulator, Table 1): 2.43 ± 0.19; Ratio of response of ACh with modulator to response of ACh alone, 100 μM ACh ([1]; 3 μM modulator, Table 1): 0.99 ± 0.02; Stimulation of [3H]AA release, No ACh (fraction of stimulation above the control) ([1]; 3 μM modulator, Table 1): 0.06 ± 0.06; Angular Velocity [3]: 141.8 ± 14.9* % of control; Total Distance Moved [3]: 72.0 ± 10.0* % of control; Variance of Turn Angle [3]: 119.6 ± 7.0* % of control
